Data: patent US20240100013A1, “SOTAGLIFLOZIN FOR IMPROVING LEFT ATRIAL FUNCTION” (CHARITÉ-UNIVERSITÄTSMEDIZIN BERLIN, priority 2021, published 2024)

Legend:
[1] = tested on: LA cardiomyocytes; test: ROS production (H2-DCF) in LA cardiomyocytes; assay type: cell-based, rat; conditions: HFpEF
Method: ROS production. LA cardiomyocytes were starved of glucose for 1 h at 37° C., loaded with H2-DCF and transferred to an LSM 800 laser scanning microscope. Two-dimensional images (excitation: 488 nm, emission: […]) were acquired for a duration of 30 s (interval: 2 s, resolution: 256×256 px, pixel size: 0.624 μm, pixel time: 8.24 μs, laser intensity: 0.6%). Cells were exposed to 30 mM glucose and another set of images acquired for a duration of 90 s. Image sequences acquired between 0-30 s (glucose starved) and 90-120 s (glucose saturated) were individually assessed. H2-DCF signal intensity (F) of the initial image was defined as F0, reactive oxygen species (ROS) accumulation calculated as ΔF=F−F0 per image, averaged per image sequence and reported as the respective rate ΔF/(F0*t).

[2] = tested on: HFpEF (ZSF-1 obese) rats; test: Echocardiography of LA size in the ZSF-1 obese rat model of HFpEF after chronic treatment; assay type: in vivo; conditions: 30 mg/kg/day oral feeding, seven weeks, vs vehicle
Text: Animal experiments were approved by local authorities. The ZSF-1 obese rat model is based on a leptin receptor mutation resulting in severe metabolic dysfunction. See Bilan V P, Salah E M, Bastacky S, Jones H B, Mayers R M, Zinker B, Poucher S M, Tofovic S P: “Diabetic nephropathy and long-term treatment effects of rosiglitazone and enalapril in obese ZSF1 rats,” J Endocrinol 2011, 210(3):293-308. The model has repeatedly been reported to show distinct features of HFpEF, such as an increased left ventricular (LV) end diastolic pressure, LV hypertrophy, diastolic dysfunction, lung congestion and LA remodeling, while maintaining a preserved ejection fraction (EF).
Echocardiography. Echocardiography was performed and analyzed as previously described (See Hohendanner F, Bode D, Primessnig U, Guthof T, Doerr R, Jeuthe S, Reimers S, Zhang K, Bach D, Wakula P et al: “Cellular mechanisms of metabolic syndrome-related atrial decompensation in a rat model of HFpEF” J Mol Cell Cardiol 2018, 115:10-19) by an experienced observer (N.H.) blinded to the treatment group immediately prior to sacrifice using a vevo lab ultrasound system to assess LA size and LV fractional shortening in vivo. 1-lead electrocardiograms were obtained during echocardiography and the presence or absence of atrial rhythm disorders i.e., atrial fibrillation was documented.

[3] = tested on: LA cardiomyocytes; test: Ca2+ transient (CaT) measurements (Fura-2) in LA cardiomyocytes, incl. glucose starvation/reintroduction and glycolytic inhibition; assay type: cell-based, rat
Text: Cardiomyocyte isolation. LA and LV cardiomyocytes were isolated using enzymatic digestion as previously described in detail. See Bode D, Guthof T, Pieske B M, Heinzel F R, Hohendanner F: “Isolation of Atrial Cardiomyocytes from a Rat Model of Metabolic Syndrome-related Heart Failure with Preserved Ejection Fraction,” J Vis Exp 2018(137).
Solutions and chemicals. Chemicals were obtained from Sigma-Aldrich (St. Louis, MO, USA) unless noted otherwise. The dual SGLT1/2 inhibitor sotagliflozin was provided by Lexicon Pharmaceuticals (The Woodlands, TX, USA). Fluorescent dyes Fura-2 AM, Rhod-2 AM, MitoTracker red, MitoTracker green, TMRE and H2-DCF were obtained from Thermo Fisher Scientific (Waltham, MA, USA). Tyrode solution contained (in mM): 130 NaCL, 4 KCl, 2 CaCl, 1 MgCl2, 10 Glucose, 10 HEPES; pH adjusted to 7.4 with NaOH. LA cardiomyocytes were plated on laminin-coated glass coverslips. 20 mM caffeine was added to Tyrode solution to induce sarcoplasmic reticulum (SR) Ca^2+ release and obtain a measure of SR Ca^2+ content. […] For glucose starvation (FIGS. 2H-J, 5A-D), glucose of Tyrode solution was replaced with 30 mM mannitol. For sub-sequent glucose reintroduction, mannitol was replaced with 30 mM glucose (“high glucose condition”).
(§1) Ca^2+ measurements and sarcomere shortening. Radiometric Ca^2+ measurements (excitation: 340 nm and 385 nm, emission: 510±10 nm; [Ca^2+] expressed as the ratio R=F340/F380) were performed either with a CytoCypher MultiCell System (CytoCypher BV, Netherlands; FIGS. 1C-F, 2D-G, 4A-F) or an Axiovert 200 microscope (Zeiss, Oberkochen, Germany) fluorescence imaging assembly (FIGS. 2A-C, 2H-J, 3A-E, 6E-I). LA cardiomyocytes were loaded with Fura-2 for 30 min at room temperature, washed twice with Tyrode solution and transferred to the microscope. Experiments were conducted at 37° C. and CaT were recorded at steady state (following electric stimulation).
(§2) CaT and sarcomere shortening of LA and LV cardiomyocytes were recorded for 10 s at 3 Hz stimulation. See FIGS. 2D-G, 4A-F. Electric stimulation was turned off and spontaneous SR Ca^2+ release events (See Voigt N, Heijman J, Wang Q, Chiang D Y, Li N, Karck M, Wehrens X H T, Nattel S, Dobrev D: “Cellular and molecular mechanisms of atrial arrhythmogenesis in patients with paroxysmal atrial fibrillation,” Circulation 2014, 129(2):145-156) (SCaEs) immediately recorded for a duration of 10 s (FIG. 1C-F). In a sub-set of LA cells, CaT were recorded for 10 s at 1 Hz stimulation. Electric stimulation was turned off, the cells immediately exposed to 20 mM caffeine and the sub-sequent caffeine-induced CaT recorded for 10 s (FIG. 2A-C, 3A-E). Sodium-calcium exchanger (NCX) activity was calculated as previously described. See Hohendanner F, Walther S, Maxwell J T, Kettlewell S, Awad S, Smith G L, Lonchyna V A, Blatter L A: “Inositol-1,4,5-trisphosphate induced Ca^2+ release and excitation-contraction coupling in atrial myocytes from normal and failing hearts,” J Physiol 2015, 593(6):1459-1477.
Cells were treated with 2-deoxyglucose to inhibit glycolysis for a duration of 3 min, while maintaining steady stimulation at 1 Hz and CaT were recorded for another 10 s. A sub-set of cells was starved of glucose for 1 h at 37° C. CaT were recorded for 10 s at 1 Hz stimulation. See FIGS. 2H-J. Cells were exposed to glucose and constant electric pacing at 1 Hz was maintained. After 1 min, CaT transients were recorded for 10 s at 1 Hz stimulation.

[4] = tested on: LA cardiomyocytes; test: Sarcomere shortening of LA cardiomyocytes; assay type: cell-based, rat
Method: as §1, §2

[5] = HFpEF, 2-deoxyglucose, 3 min, 1 Hz
[6] = HFpEF, 3 Hz, 5 mM extracellular [Ca2+]
[7] = baseline, 1 Hz, 2 mM Ca2+, chronic treatment

## CCOc1ccc(Cc2cc([C@@H]3O[C@H](SC)[C@@H](O)[C@H](O)[C@H]3O)ccc2Cl)cc1 [sotagliflozin, (2S,3R,4R,5S,6R)-2-(4-chloro-3-(4-ethoxybenzyl)phenyl)-6-(methylthio)tetrahydro-2H-pyran-3,4,5-triol]
[1]; 30 mM glucose
  decrease of ROS production after reintroduction of glucose: this effect could not be observed
[1]; after 1 h glucose starvation
  ROS production: significantly reduced
[2]
  LA enlargement (LA volume in vivo): mitigates LA enlargement
[3]; [5]
  increased CaT amplitude gain upon glycolytic inhibition: prevented
  increased influx of diastolic Ca2+ upon glycolytic inhibition: prevented
[3]; [6]
  CaT amplitudes: unchanged
  diastolic [Ca2+]: significant reduction
[3]; HFpEF, 1 h glucose starvation, then 30 mM glucose
  glucose-mediated influx of diastolic Ca2+: prevented
[3]; [7]
  CaT amplitude: did not alter
  diastolic [Ca2+]: did not alter
[4]; HFpEF
  shortening of time-to-peak and relaxation time: this effect could not be observed
[4]; [6]
  diastolic sarcomere length: significant increase
[4]; HFpEF, relationship of CaT and sarcomere shortening
  Ca2+ sensitivity: reduced
[4]; WT
  sarcomere relaxation time: shortened
  sarcomere shortening time-to-peak: shortened
